Measurements as given in the supplement of paper PMC10307832.

What was measured:
Experiment in all cases: relative viability (nuclei count vs DMSO), 5 days (fraction); higher = more cells survive
IMD-0354 + Phenformin = compound: O=C(Nc1cc(C(F)(F)F)cc(C(F)(F)F)c1)c1cc(Cl)ccc1O [IMD-0354] + N=C(N)NC(=N)NCCc1ccccc1 [Phenformin] (partner 250 µM)
In short: (§1)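 Lung cancer cell lines in 1536-well plates got either a single drug or a fixed anchor-drug dose together with five library-drug doses (not always all listed) in √10 steps, by pin tool, on the day after seeding. Nuclei were counted after 5 days, and relative viability is the treated-to-vehicle ratio of nuclei counts. Values are medians of duplicate plates.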

CX-5461 + Vorinostat = compound: Cc1cnc(CNC(=O)c2c(=O)c3ccc(N4CCCN(C)CC4)nc3n3c2sc2ccccc23)cn1 [CX-5461] + O=C(CCCCCCC(=O)Nc1ccccc1)NO [Vorinostat] (partner 1 µM)
In short: as §1

CX-5461 + Bortezomib = compound: Cc1cnc(CNC(=O)c2c(=O)c3ccc(N4CCCN(C)CC4)nc3n3c2sc2ccccc23)cn1 [CX-5461] + CC(C)C[C@H](NC(=O)[C@H](Cc1ccccc1)NC(=O)c1cnccn1)B(O)O [Bortezomib] (partner 0.002 µM)
In short: as §1

IMD-0354 + AZD7762 = compound: O=C(Nc1cc(C(F)(F)F)cc(C(F)(F)F)c1)c1cc(Cl)ccc1O [IMD-0354] + NC(=O)Nc1cc(-c2cccc(F)c2)sc1C(=O)N[C@H]1CCCNC1 [AZD7762] (partner 0.2 µM)
In short: as §1

Row | Cell Line | relative viability (IMD-0354 + Phenformin; first compound 0.04 µM) | relative viability (IMD-0354 + Phenformin; first compound 0.1265 µM) | relative viability (IMD-0354 + Phenformin; first compound 0.4 µM) | relative viability (IMD-0354 + Phenformin; first compound 1.265 µM) | relative viability (IMD-0354 + Phenformin; first compound 4 µM) | relative viability (CX-5461 + Vorinostat; first compound 0.01 µM) | relative viability (CX-5461 + Vorinostat; first compound 0.03162 µM) | relative viability (CX-5461 + Vorinostat; first compound 0.1 µM) | relative viability (CX-5461 + Vorinostat; first compound 0.3162 µM) | relative viability (CX-5461 + Vorinostat; first compound 1 µM) | relative viability (CX-5461 + Bortezomib; first compound 0.01 µM) | relative viability (CX-5461 + Bortezomib; first compound 0.03162 µM) | relative viability (CX-5461 + Bortezomib; first compound 0.1 µM) | relative viability (CX-5461 + Bortezomib; first compound 0.3162 µM) | relative viability (CX-5461 + Bortezomib; first compound 1 µM) | relative viability (IMD-0354 + AZD7762; first compound 0.04 µM) | relative viability (IMD-0354 + AZD7762; first compound 0.1265 µM) | relative viability (IMD-0354 + AZD7762; first compound 0.4 µM) | relative viability (IMD-0354 + AZD7762; first compound 1.265 µM) | relative viability (IMD-0354 + AZD7762; first compound 4 µM)
1 | NCI-H838 | 0.685 | 0.448 | 0.358 | 0.234 | 0.207 | 0.669 | 0.789 | 0.76 | 0.548 | 0.617 | 0.902 | 0.85 | 0.979 | 0.29 | 0.646 | 0.981 | 0.9 | 0.68 | 0.714 | 0.688
2 | A-427 | 0.379 | 0.209 | 0.247 | 0.105 | 0.112 | 0.879 | 0.884 | 0.872 | 0.805 | 0.548 | 0.999 | 1.04 | 0.98 | – | 0.912 | 1.01 | 0.827 | 0.585 | 0.14 | 0.202
3 | LCLC-97TM1 | 0.43 | 0.451 | 0.234 | 0.18 | 0.126 | 0.917 | 0.965 | 0.769 | 0.102 | 0.661 | 0.69 | 0.34 | 0.457 | – | 0.119 | 0.315 | 0.449 | 0.222 | 0.185 | 0.128
4 | LCLC-103H | 0.39 | 0.304 | 0.197 | 0.214 | 0.177 | 0.784 | 0.855 | 0.827 | 0.517 | 0.741 | 1.1 | 1.13 | 1.11 | 1.02 | 1.07 | 0.952 | 0.907 | 0.554 | 0.47 | 0.257
5 | PC-3 [JPC-3] | 0.508 | 0.449 | 0.459 | 0.264 | 0.291 | 0.765 | – | 0.783 | 0.869 | 0.72 | 0.745 | 0.83 | 0.838 | 0.884 | 0.825 | 1.01 | 0.751 | 0.64 | 0.291 | 0.355
6 | BEN | 0.248 | 0.267 | 0.229 | 0.179 | 0.174 | 0.596 | 0.588 | 0.514 | 0.536 | 0.608 | 1.07 | 0.665 | 1.02 | 0.672 | 0.597 | 0.715 | 0.793 | 0.487 | 0.334 | 0.347
7 | NCI-H1666 | 0.592 | 0.558 | 0.476 | 0.384 | 0.254 | 0.986 | 1.05 | 1.07 | 0.981 | 0.975 | 0.839 | 0.741 | – | 0.758 | 0.505 | 0.777 | 0.957 | 0.689 | 0.623 | 0.467
8 | LC-2-ad | 0.612 | 0.548 | 0.232 | 0.267 | 0.17 | 0.732 | 0.768 | 0.716 | 0.659 | 0.491 | 0.967 | 1.09 | 1.06 | 1.06 | 0.638 | 0.902 | 0.85 | 0.504 | 0.15 | 0.24
9 | ChaGo-K-1 | 0.584 | 0.544 | 0.318 | 0.225 | 0.199 | 0.786 | 0.81 | 0.699 | 0.262 | 0.513 | 1.14 | 0.968 | 0.647 | 0.414 | 0.449 | 0.912 | 0.937 | 0.596 | 0.218 | 0.254
10 | NCI-H1975 | 0.402 | 0.362 | 0.201 | 0.139 | 0.124 | 0.686 | 0.719 | 0.684 | 0.696 | 0.459 | 0.361 | 0.357 | 0.357 | 0.358 | 0.154 | 0.781 | 0.771 | 0.655 | 0.724 | 0.266
11 | NCI-H1993 | 0.48 | 0.495 | 0.438 | 0.465 | 0.524 | 1.11 | 0.988 | 0.889 | 0.403 | 0.638 | 1.09 | 1.18 | 1.14 | 0.944 | 0.937 | 0.853 | 0.645 | 0.711 | 0.328 | 0.529
12 | RERF-LC-KJ | 0.478 | 0.423 | 0.337 | 0.289 | 0.207 | 0.724 | 0.756 | 0.532 | 0.589 | 0.54 | 1.11 | 1.1 | 1.15 | 1.09 | 1.01 | 1.1 | 1 | – | 0.327 | 0.184
13 | NCI-H23 | 0.811 | 0.81 | 0.313 | 0.198 | 0.189 | 0.755 | 0.577 | 0.492 | 0.458 | 0.3 | 0.939 | 0.964 | 0.854 | 1.06 | 0.404 | 0.252 | 0.253 | 0.229 | 0.13 | 0.222
14 | HCC-366 | 0.574 | 0.562 | 0.276 | 0.0732 | 0.0339 | 0.441 | 0.408 | 0.166 | 0.242 | 0.0455 | 1.08 | 1.18 | 1.06 | 1.04 | 0.114 | 0.277 | 0.361 | 0.148 | 0.0408 | 0.048
15 | EMC-BAC-2 | 0.52 | 0.441 | 0.24 | 0.155 | 0.218 | 0.435 | 0.138 | 0.269 | 0.203 | 0.201 | 1.14 | 1.13 | 1.04 | 1.06 | 0.746 | 1.19 | 1.13 | 0.822 | 0.443 | 0.433
16 | NCI-H2405 | 0.445 | 0.398 | 0.286 | 0.245 | 0.166 | 1.04 | 0.872 | 0.994 | 0.939 | 0.669 | 0.998 | 0.976 | 0.987 | 1.13 | 0.953 | 0.964 | 0.829 | 0.514 | 0.29 | 0.414
17 | EPLC-272H | 0.34 | 0.199 | 0.304 | 0.0841 | 0.0653 | 0.47 | 0.362 | 0.362 | 0.48 | 0.458 | 0.93 | 0.975 | 0.765 | – | 0.814 | 0.167 | 0.217 | 0.162 | 0.19 | 0.118
18 | NCI-H1915 | 0.37 | 0.31 | 0.26 | 0.182 | 0.156 | 0.554 | 0.567 | 0.503 | 0.427 | 0.482 | 1.03 | 1.06 | 0.989 | 1.02 | 0.891 | 0.666 | 0.694 | 0.58 | 0.507 | 0.149
19 | NCI-H596 | 0.852 | 0.748 | 0.547 | 0.898 | 0.318 | 0.608 | 0.686 | 0.664 | 0.706 | 0.306 | 0.948 | – | 0.594 | 1.03 | 0.529 | 0.906 | 0.959 | 0.877 | 0.519 | 0.551
20 | NCI-H322M | 0.865 | 0.796 | 0.378 | 0.277 | 0.375 | 0.894 | 0.802 | 0.9 | 0.569 | 0.743 | 1.2 | 1.35 | 1.26 | – | 1.23 | 0.566 | 0.548 | 0.48 | 0.268 | 0.479
21 | NCI-H647 | 0.784 | 0.376 | 0.283 | 0.129 | 0.0531 | 0.646 | 0.536 | 0.441 | 0.548 | 0.251 | 1.16 | 0.991 | 0.95 | 0.935 | 0.168 | 0.707 | 0.531 | 0.309 | 0.0742 | 0.159
22 | NCI-H2085 | 0.641 | 0.69 | 0.515 | 0.322 | 0.232 | 0.854 | 0.82 | 0.708 | 0.865 | 0.719 | 1.04 | 0.999 | 0.871 | 1.01 | 0.677 | 1.18 | 1.12 | 0.754 | 0.324 | 0.359
23 | NCI-H727 | 0.483 | 0.407 | 0.426 | 0.307 | 0.402 | 1.4 | 1.2 | 1.28 | 1.03 | 1.05 | 1.03 | 0.812 | 0.596 | 0.718 | 0.662 | 0.589 | 0.727 | 0.484 | 0.44 | 0.398
24 | NCI-H441 | 0.79 | 0.693 | 0.45 | 0.177 | 0.262 | 0.538 | 0.984 | 0.707 | 0.618 | 0.556 | 0.577 | 0.555 | 0.692 | 0.465 | 0.337 | 1.4 | 1.31 | 0.664 | 0.24 | 0.293
25 | LOU-NH91 | 0.498 | 0.393 | 0.208 | 0.143 | 0.166 | 0.985 | 0.957 | 0.87 | 0.49 | 0.697 | 0.509 | 0.492 | 0.485 | – | 0.452 | 0.827 | 0.672 | 0.284 | 0.151 | 0.266
26 | NCI-H3122 | 0.401 | 0.339 | 0.136 | 0.064 | 0.0975 | 1.02 | 1.02 | 1.12 | 1.07 | 0.967 | 0.95 | 1.06 | 1.07 | 1.02 | 0.914 | 1.05 | 1.05 | 0.623 | 0.271 | 0.133
27 | NCI-H460 | 0.514 | 0.365 | 0.103 | 0.0203 | 0.0155 | 0.721 | 0.909 | 0.216 | 0.48 | 0.0282 | 1.15 | 0.995 | 0.16 | 0.233 | 0.0251 | 0.649 | 0.756 | 0.301 | 0.0985 | 0.0595
